Source: PMC10748125 (Viruses, 2023)

Assays:
MRC-5 cells = settings: human
HCoV-229E = assay: Viral yield reduction (VYR) assay, HCoV-229E in MRC-5 cells; settings: read-out: EC50 (μM) HCoV-229E, progeny virus 24 h post-infection, mean ± SD
[1] = Cytotoxicity assay (CCK-8), NCTC clone 929; type: cell-based, murine; settings: mouse, NCTC clone 929 cells; Figure 1C MHV plot label; read-out: NCTC clone CC50 (label inside plot)
HCoV-OC43 = assay: Viral yield reduction (VYR) assay, HCoV-OC43 in HCT-8 cells; settings: read-out: EC50 (μM) HCoV-OC43, progeny virus 24 h post-infection, mean ± SD
[2] = Cytotoxicity assay (CCK-8), Caco-2; type: cell-based; settings: human, CCK-8, 48 h treatment
HCoV-NL63 [3] = assay: Time-of-addition assay; type: cell-based
HCoV-NL63 [4] = assay: Viral yield reduction (VYR) assay, HCoV-NL63 in Caco-2 cells; settings: read-out: EC50 (μM) HCoV-NL63, progeny virus 24 h post-infection, mean ± SD
[5] = Cytotoxicity assay (CCK-8), HCT-8; type: cell-based; settings: human, HCT-8 cells; CCK-8, 48 h treatment
in vitro = settings: human
[6] = Cytotoxicity assay (CCK-8), CRFK; type: cell-based, feline; settings: cat, CRFK cells; Figure 1C CCoV plot label; read-out: CRFK CC50 (label inside plot)
[7] = 2 μM VV116, 2 μM Remdesivir, 300 μg/mL heparan sulfate, MOI 0.1, 24 h post-infection

## CCC(CC)COC(=O)[C@H](C)N[P@](=O)(OC[C@H]1O[C@@](C#N)(c2ccc3c(N)ncnn23)[C@H](O)[C@@H]1O)Oc1ccccc1 [Remdesivir]
MRC-5 cells
  CC50: > 100 µM
HCoV-229E
  EC50: 0.056 ± 0.002 µM
[1]
  CC50 at 48 h: > 100 µM
HCoV-OC43
  EC50: 0.069 ± 0.001 µM
[2]
  CC50 at 48 h: > 100 µM
HCoV-NL63 [3]; 2 μM Remdesivir, compared with VV116
  Time-of-addition result overall: comparable to that obtained for VV116
HCoV-NL63 [4]
  EC50: 0.495 ± 0.01 µM
[5]
  CC50 at 48 h: > 100 µM
In vitro
  CC50: > 100 µM
[6]
  CC50 at 48 h: > 100 µM

## heparan sulfate
HCoV-NL63 [3]; [7]
  Antiviral activity when added at the post-entry phase (NP Western blot): abolished
  Antiviral activity when added during the entry phase (NP Western blot): demonstrated antiviral activity
